Measurements taken from patent US20190133997A1, “ARTEMISININ ANALOG, AND USE, METHOD, AND COMPOSITION FOR PROMOTING LIPID CATABOLISM AND IMPROVING SUGAR METABOLISM” (FUDAN UNIVERSITY, priority 2016, published 2019).

Columns and labels:
[1] = test system: obese mice induced by high-fat diet; experiment: Intraperitoneal artemether, fatty liver in obese mice induced by high-fat diet (HE staining); type: in vivo, Male C57BL/6J mice; conditions: intraperitoneal 20 mg/kg twice a week, eight weeks
Procedure: The mice were breeded in the SPF animal laboratory of the Laboratory Animal Center of Fudan University at a room temperature of 21° C.-23° C. with a 12-hour light/dark cycle. […] When the mice were grown to 8-week old, they were randomly divided into a control group and an administration group, with 8 mice in each group. While the mice were fed with a high-fat diet, artemether was injected intraperitoneally. Artemether for intraperitoneal injection was stored at 4° C. in coconut oil at a storage concentration of 6 mg/ml (20 mMol/L), and protected from light. Mice in administration group were injected with artemether at a dose of 20 mg/kg weight. Administration was twice a week for eight weeks. The mice were sacrificed by cervical dislocation, and liver tissues of mice were removed and fixed. The histological analysis for liver was commissioned by Shanghai Saige Biotech Co., Ltd., and the histological analysis process included tissue fixation, paraffin embedding, sectioning and HE staining.

high fat-fed mice [2] = experiment: Subcutaneous artemether, weight gain induced by high-fat diet; type: in vivo, Male C57BL/6J mice; conditions: eight weeks
Procedure: The mice were breeded in the SPF animal laboratory of the Laboratory Animal Center of Fudan University at a room temperature of 21° C.-23° C. with a 12-hour light/dark cycle. […] When the mice were grown to 8-week old, they were randomly divided into a control group and an administration group, with 8 mice in each group. While the mice were fed with a high-fat diet, artemether was injected subcutaneously. Artemether was diluted in PBS at a concentration of […], and injected into bilateral inguinal region, with 200 μl being injected into each side. Mice in control group were injected with the same volume of PBS. Administration was continued for eight weeks and the weight of mice was recorded weekly.

ob/ob mice [3] = experiment: Intraperitoneal artemether, weight gain in diabetic ob/ob mice; type: in vivo, Male ob/ob mice; conditions: intraperitoneal 20 mg/kg twice a week, eight weeks
Procedure: The ob/ob mice were breeded in the SPF animal laboratory of the Laboratory Animal Center of Fudan University at a room temperature of 21° C.-23° C. with a 12-hour light/dark cycle. When the mice were grown to 4-week old, they were randomly divided into a control group and an administration group, with 4 mice in each group. The administration group was injected intraperitoneally with artemether. Artemether for intraperitoneal injection was stored at 4° C. in coconut oil at a storage concentration of 6 mg/ml (20 mMol/L), and protected from light. Ob/ob mice in administration group were injected with artemether at a dose of 20 mg/kg weight. Administration was twice a week for eight weeks, and the weight of the mice was recorded weekly.

ob/ob mice [4] = experiment: Intraperitoneal artemether, fatty liver in diabetic ob/ob mice; type: in vivo, Male ob/ob mice; conditions: intraperitoneal 20 mg/kg twice a week, eight weeks
Procedure: Ob/ob mice were breeded in the SPF animal laboratory of the Laboratory Animal Center of Fudan University at a room temperature of 21° C.-23° C. with a 12-hour light/dark cycle. When the mice were grown to 4-week old, they were randomly divided into a control group and an administration group, with 4 mice in each group. Mice in administration group were injected intraperitoneally with artemether. Artemether for intraperitoneal injection was stored at 4° C. in coconut oil at a storage concentration of 6 mg/ml (20 mMol/L), and protected from light. Ob/ob mice in administration group were injected with artemether at a dose of 20 mg/kg weight. Administration was twice a week for eight weeks. The mice were sacrificed by cervical dislocation, and liver tissues of mice were removed, fixed and paraffin embedded. The histological analysis was commissioned by Shanghai Saige Biotech Co., Ltd.

SVF primary preadipocyte = experiment: Artemether on differentiation of Stromal Vascular Fraction (SVF) primary preadipocytes (morphology, Western blot); type: cell-based, mice
Procedure: Inguinal fat of male mice was cut into pieces, treated with collagenase at 37° C. for 15 min, and centrifuged at 250 rpm for 10 min. The pellet was resuspended in F12/DMEM medium. 2.5×10^5 cells were taken and seeded in a 3.5 cm culture dish, which was pretreated with 1 ml polylysine for 30 min. Two days after cell contact inhibition (defined as Day 0 of differentiation), induction was performed according to adipocyte differentiation protocol as follows: two days after induction with F12/DMEM comprising 10% fetal bovine serum, 0.5 mMol/L Mix, 1 μMol/L Dex, 5 μg/ml insulin, and 1 μMol/L rosiglitazone; the culture was continued for 2 days with DMEM/F12 comprising 10% fetal bovine serum, […] insulin and 1 μMol/L rosiglitazone; thereafter, DMEM/F12 medium containing 10% fetal bovine serum was replaced every other day until the cells differentiated to Day 8.
On Day 0 of differentiation, SVF was treated with different concentrations of artemether ([…]), then fresh medium was replaced, and the corresponding concentration of artemether was added until the cells differentiated to mature.
The method for extracting total SVF protein was the same as 2.4.3, Western blot method and catalog number of antibody was the same as 2.4.4.

high fat-fed mice [5] = experiment: Subcutaneous artemether, fatty liver induced by high-fat diet (HE staining); type: in vivo, Male C57BL/6J mice; conditions: subcutaneous injection, eight weeks, control: obvious lipid accumulation
Procedure: The mice were breeded in the SPF animal laboratory of the Laboratory Animal Center of Fudan University at a room temperature of 21° C.-23° C. with a 12-hour light/dark cycle. […] When the mice were grown to 8-week old, they were randomly divided into a control group and an administration group, with 8 mice in each group. While the mice were fed with a high-fat diet, artemether was injected subcutaneously. Artemether was diluted in PBS at a concentration of […], and injected into bilateral inguinal region, with 200 μl being injected into each side. Mice in control group were injected with the same volume of PBS. Administration was continued for eight weeks. The mice were sacrificed by cervical dislocation, and liver tissues of mice were removed. The histological analysis including tissue fixation, paraffin embedding, sectioning and HE staining was commissioned by Shanghai Saige Biotech Co., Ltd.

high fat-fed mice [6] = experiment: Intraperitoneal artemether, weight gain induced by high-fat diet; type: in vivo, Male C57BL/6J mice; conditions: intraperitoneal 20 mg/kg twice a week, eight weeks
Procedure: The mice were breeded in the SPF animal laboratory of the Laboratory Animal Center of Fudan University at a room temperature of 21° C.-23° C. with a 12-hour light/dark cycle. […] When the mice were grown to 8-week old, they were randomly divided into a control group and an administration group, with 8 mice in each group. While the mice were fed with a high-fat diet, artemether was injected intraperitoneally. Artemether for intraperitoneal injection was stored at 4° C. in coconut oil at a storage concentration of 6 mg/ml (20 mMol/L), and protected from light. Mice in administration group were injected with artemether at a dose of 20 mg/kg weight. Administration was twice a week for eight weeks, and the weight of the mice was recorded weekly.

[7] = SVF, artemether 5, 10, 15 Mol/L, Western Blot

SMILES: CO[C@H]1O[C@@H]2O[C@@]3(C)CC[C@H]4[C@H](C)CC[C@@H]([C@H]1C)[C@@]24OO3 [artemether]
- morphology of the liver cells [1]: almost normal
- lipid in the liver (fatty liver) ([1]; control: obvious lipid accumulation): only a small amount of lipid
- weight of mice (high fat-fed mice [2]; subcutaneous injection 15 Mol/L in PBS, 200 μl each inguinal side, statistically different after six weeks): significantly lower than that of mice in control group
- weight gain of mice (high fat-fed mice [2]; subcutaneous injection): significantly slower than that of mice in control group
- weight gain of ob/ob mice (ob/ob mice [3]): significantly slower than that of mice in control group
- weight of ob/ob mice (ob/ob mice [3]): tended to be lower than that of mice in control group, but was not statistically different
- fatty liver of ob/ob mice (HE staining) (ob/ob mice [4]): significantly relieved
- expression level of PGC1α (SVF primary preadipocyte; [7]): gradually increase with the increase of artemether concentration
- expression level of PRDM16 (SVF primary preadipocyte; [7]): gradually increase with the increase of artemether concentration
- expression level of UCP1 (SVF primary preadipocyte; [7]): gradually increase with the increase of artemether concentration
- cell morphology of SVF primary preadipocyte (SVF primary preadipocyte; artemether 5, 10, 15 Mol/L during differentiation, vs standard differentiated control cells, concentration-dependent tendency): smaller in size, with characteristics of multi-cavity small lipid droplets
- lipid in the liver (fatty liver) (high fat-fed mice [5]): only a small amount of lipid
- weight gain of mice (high fat-fed mice [6]): significantly slower than that of mice in control group
- weight of mice (high fat-fed mice [6]; statistically different after three weeks): significantly lower than that of mice in control group
